For data set [1], the target named is hA2A receptor (Homo sapiens (Human), UniProt P29274). Briefly: A2A FRET-based binding assay. To be noted: HEK GFP-A2A stable cell line, dyed CGS15943-derived probe. As to the method:
Assay protocol: Compounds were evaluated on an in-vitro binding assay developed based on the technology described in the patent WO 98/55873. This assay was developed from hA2A receptor that was fused at its amino terminal domain to Green Fluorescent Protein (GFP) and stably expressed in HEK cells. The probe used is a dyed ligand derived from the non-selective CGS15943. For the FRET-binding experiment, HEK GFP-A2A stable cell line was seeded onto poly-D-lysine precoated black-walled 96-well plates in normal growth media (0.7 10^5 cells per well). After 24 hours of culture at 37° C., the cell media was removed and cells were washed. The tested compounds were applied on cells by the FLIPR^TETRA® (Molecular Devices®) and incubated for 10 minutes prior to addition of the dyed probe. When a drug interacts with the receptor, the FRET signal measured by the variation of GFP fluorescence at 510 nm is disrupted. The time curves of ligand binding were recorded during 1000 seconds. (excitation Light Emitting Diode 470-495 nm, emission 510+/−10 nm). The percentage of inhibition allows the evaluation of the inhibitory activity of compounds in comparison to the antagonist A2A reference CGS15943. The dose-inhibition curves were fitted with variable slope, using GraphPad® Prism software, in order to determine […] and Ki values. The dose-inhibition experiments were all performed in duplicate, three times independently.

Data set [2] concerns the target human A2A receptor (Homo sapiens, UniProt P29274). The experiment in a line: A2A-antagonist Ca++ functional assay (CGS21680 at EC80). The data set is classed as cell-based. To be noted: HEK cells expressing GFP-hA2A and Gα15, inhibition of CGS21680 (EC80)-induced Ca2+ increase. The source says: Assay protocol: HEK cells stably expressing the human A2A receptor fused at its amino terminal domain to GFP, and cultured in Modified Eagle's Medium supplemented with 10% FCS, were transiently transfected by electroporation with plasmid DNA encoding the promiscuous G protein Gα15 in order to deviate the natural coupling of the receptor from AMPc production to calcium (Ca^2+) release pathway (Brabet et al., Neuropharmacology 37:1043-1051, 1998). Receptor activity was detected by changes in intracellular Ca^2+, measured using the fluorescent Ca^2+ sensitive dye, Fluo4AM (Molecular Probes®).
Cells were plated after transfection onto polyornithine coated, clear bottom, black-walled, 96-well plates and cultured for 24 hours. The day of the test, cells were washed with freshly prepared buffer B (HBSS 1×, Hepes 20 mM, MgSO4.7H2O 1 mM, Na2CO3 3.3 mM, CaCl2-2H2O 1.3 mM, 0.5% BSA, Probenecid 2.5 mM) and loaded at 37° C. in 5% CO2 for 1.5 hours with buffer B containing 1 μM Fluo4AM and 0.1 mg/mL Pluronic Acid. Afterwards cells were washed twice with buffer B and 50 μL of this buffer were added to each well. The tested compounds were incubated […] before addition of CGS21680 (used as reference agonist) at a concentration leading to 80% of its maximal activity (EC80). Afterwards, the intracellular Ca^2+ measurements were performed on a 60s kinetic by detection of the fluorescence intensity (excitation 485 nm, emission 525 nm) using the fluorescence microplate reader FlexStation® (Molecular Devices®). All data reflect three independent experiments. Dose-response curves were fitted by using the sigmoidal dose-response (variable slope) analyze in GraphPad Prism® program (San Diego) and IC50 of antagonist compound was calculated. Dose-response experiments were all performed in triplicate, three times independently.

Usually melting point stands for the temperature, or range, at which the solid turns liquid. In general, Ki refers to a dissociation constant, usually derived from enzyme kinetics or from competition with a known ligand. A high value points to a looser hold on the target. As usually defined, the IC50 is the concentration at which inhibition is half-maximal. A low value points to greater potency.

SMILES strings stand for the structures. Structures can show the parent of a compound that is named as a salt.

Sequence of hA2A receptor (P29274 whole entry, the tested form may be a part): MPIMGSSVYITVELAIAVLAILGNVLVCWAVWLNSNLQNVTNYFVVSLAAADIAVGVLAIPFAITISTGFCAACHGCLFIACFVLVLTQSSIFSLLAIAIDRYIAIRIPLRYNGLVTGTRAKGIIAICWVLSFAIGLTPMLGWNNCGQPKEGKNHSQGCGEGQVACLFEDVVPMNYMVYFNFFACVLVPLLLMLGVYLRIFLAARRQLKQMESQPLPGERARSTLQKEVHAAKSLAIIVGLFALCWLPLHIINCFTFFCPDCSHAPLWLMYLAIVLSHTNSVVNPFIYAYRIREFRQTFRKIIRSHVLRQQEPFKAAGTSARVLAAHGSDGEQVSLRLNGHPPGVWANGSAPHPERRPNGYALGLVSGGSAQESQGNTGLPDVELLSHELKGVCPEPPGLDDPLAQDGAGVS

The molecule `Cl.O=C(c1ccc2c(-c3cnc4ccc(F)cn34)nn(Cc3ccccc3)c2c1)N1CCCCCC1` [Example 107, Azepan-1-yl-[1-benzyl-3-(6-fluoro-imidazo[1,2-a]pyridin-3-yl)-1H-indazol-6-yl]-methanone, HCl salt] returned a melting point of 134 to 135 °C. This molecule also yielded a Ki in data set [1] of 34 ± 5 nM.
As to `Cl.Cn1nc(-c2cnc3ccccn23)c2ccc(C(=O)N3CCCCCC3)cc21`, the melting point is > 250 °C.
In data set [1], `O=C(c1ccc2c(-c3cnc4ccc(F)cn34)c[nH]c2c1)N1CCCCCC1` [Example 134, 3-[6-(Azepan-1-ylcarbonyl)-1H-indol-3-yl]-6-fluoroimidazo[1,2-a]pyridine] showed a Ki of 348 ± 95 nM.
Take `CCN(C(=O)c1ccc2c(-c3cnc4ccc(F)cn34)noc2c1)C(C)C.Cl`: the melting point was 219 to 225 °C.
The molecule `CCN(C(=O)c1ccc(C(=O)c2cnc3ccc(Br)cn23)cc1)C1CCCCC1` [Example 10, 4-(6-Bromo-imidazo[1,2-a]pyridine-3-carbonyl)-N-cyclohexyl-N-ethyl-benzamide] registered a Ki in data set [1] of 108 ± 74 nM. The molecule further returned a concentration for half-maximal inhibition (IC50) in data set [2] of 891 ± 571 nM.
On the same counts, the results for `CCN(C(=O)c1ccc(C(=O)c2cnc3ccccn23)nc1)C1CCCCC1` [Example 23, N-Cyclohexyl-N-ethyl-6-(imidazo[1,2-a]pyridine-3-carbonyl)-nicotinamide] are 264 ± 141 nM and 403 ± 163 nM.
In turn, `Nc1nc(-c2cnc3ccc(F)cn23)c2ccc(C(=O)N3CCCCCC3)cc2n1` [Example 136, 2-Amino-7-(azepan-1-ylcarbonyl)-4-(6-fluoroimidazo[1,2-a]pyridin-3-yl)quinazoline, HCl salt] gave an inhibitory constant (Ki) in data set [1] of 84 ± 11 nM.
With `Cl.O=C(c1ccc2c(-c3cnc4ccc(F)cn34)nn(CCc3ccccc3)c2c1)N1CCCCCC1`, the melting point lay in the range of 139 to 140 °C.
Same read-out and setting: the result for `N#Cc1ccc2ncc(C(=O)c3ccc(C(=O)N4CCCCCC4)cc3F)n2c1` [Example 73, 3-[4-(Azepan-1-ylcarbonyl)-2-fluorobenzoyl]imidazo[1,2-a]pyridine-6-carbonitrile] reads 128 to 130 °C; that for `CCc1ccc2ncc(-c3nn(C)c4cc(C(=O)N5CCCCCC5)ccc34)n2c1.Cl`, > 250 °C.
`CCN(C(=O)c1ccc(C(=O)c2cnc3ccccn23)cc1)c1ccccc1` [Example 56, N-Ethyl-4-(imidazo[1,2-a]pyridine-3-carbonyl)-N-phenyl-benzamide] displayed a melting point of 141 to 145 °C. In data set [1], this molecule displayed a Ki of 188 ± 63 nM.
As for `Cl.O=C(c1ccc2c(-c3cnc4ccc(F)cn34)noc2c1)N1CCCCC1`, the melting point was in the range of 203 to 205 °C.
Take `Cn1nc(-c2cnc3ccc(F)cn23)c2ccc(C(=O)N3CCCCCC3)cc21` [Example 79, Azepan-1-yl-[3-(6-fluoro-imidazo[1,2-a]pyridin-3-yl)-1-methyl-1H-indazol-6-yl]-methanone]: the affinity in data set [1] corresponds to a Ki of 4 ± 1 nM. In data set [2], this molecule showed a half-maximal inhibitory concentration (IC50) of 15 ± 4 nM.
Regarding `COCCOCCn1nc(-c2cnc3ccc(F)cn23)c2ccc(C(=O)N3CCCCCC3)cc21.Cl`, the melting point fell in the range of 159 to 165 °C.
Still for that read-out and setting: with `Cc1ccc2ncc(-c3nn(C)c4cc(C(=O)N5CCCCCC5)ccc34)n2c1.Cl` the figure was > 250 °C; with `COC[C@H]1CCCN1C(=O)c1ccc2c(-c3cnc4ccc(C#N)cn34)nn(C)c2c1.Cl` (hydrate or solvate) [Example 101, 3-(1-Methyl-6-{[(2R)-2-(methoxymethyl)pyrrolidin-1-yl]carbonyl}-1H-indazol-3-yl)imidazo[1,2-a]pyridine-6-carbonitrile, chlorhydrate salt], 230 to 235 °C.
Turning to `CN(C(=O)c1ccc2c(-c3cnc4ccc(F)cn34)nn(C)c2c1)c1ccccc1.Cl`, the melting point was > 250 °C.
For `COC[C@H]1CCCN1C(=O)c1ccc2c(-c3cnc4ccc(C#N)cn34)nn(C)c2c1` [Example 101, 3-(1-Methyl-6-{[(2R)-2-(methoxymethyl)pyrrolidin-1-yl]carbonyl}-1H-indazol-3-yl)imidazo[1,2-a]pyridine-6-carbonitrile, chlorhydrate salt], the inhibition constant (Ki) in data set [1] was determined as 3 nM. This molecule registered a concentration for half-maximal inhibition (IC50) in data set [2] of 12 ± 4 nM.
For the molecule `CCN(C(=O)c1ccc2c(-c3cnc4ccc(F)cn34)nn(C)c2c1)C(C)C.Cl`, the melting point is > 250 °C.
Same read-out and setting: with `Cl.Cn1nc(-c2cnc3ccc(C4CC4)cn23)c2ccc(C(=O)N3CCCCCC3)cc21` the figure was > 250 °C; with `Cl.Cn1nc(-c2cnc3ccc(F)cn23)c2ccc(C(=O)N3CCCCCCCC3)cc21` (hydrate or solvate), 240 to 245 °C.
In the case of `CCN(C(=O)c1ccc(C(=O)c2cnc3ccc(C#N)cn23)cc1)C1CCCCC1` [Example 7, 4-(6-Cyano-imidazo[1,2-a]pyridine-3-carbonyl)-N-cyclohexyl-N-ethyl-benzamide], in data set [1], the affinity, expressed as Ki, was 171 ± 104 nM.
In the case of `Cl.Cn1nc(-c2cnc3ccc(C#N)cn23)c2ccc(C(=O)N3CCCCCC3)cc21`, the melting point was > 250 °C.
On the same count and under the same terms, with `Cl.Cn1nc(-c2cnc3ccc(C#N)cn23)c2ccc(C(=O)N3CCCCC3)cc21` (hydrate or solvate) the figure was > 250 °C; with `Cl.Cn1nc(-c2cnc3ccc(F)cn23)c2ccc(C(=O)N(CC3CC3)C3CCCCC3)cc21`, 235 to 245 °C.
Turning to `CN1CCN(C(=O)n2nc(-c3cnc4ccc(F)cn34)c3ccc(C(=O)N4CCCCCC4)cc32)CC1.Cl` [Example 111, Azepan-1-yl-[3-(6-fluoro-imidazo[1,2-a]pyridin-3-yl)-1-[(4-methylpiperazin-1-yl)carbonyl]-1H-indazol-6-yl]-methanone, HCl salt], the melting point is 193 to 199 °C. Moreover, in data set [1], the affinity, expressed as Ki, was 291 ± 30 nM.
`Cl.Cn1nc(-c2cnc3ccc(C(F)(F)F)cn23)c2ccc(C(=O)N3CCCCCC3)cc21` [Example 85, [6-(Azepan-1-ylcarbonyl)]-1-methyl-3[6-(trifluoromethyl)-imidazo[1,2-a]pyridin-3-yl]-1H-indazole, HCl salt]: the melting point fell in the range of 202 to 204 °C. The molecule also came in with an inhibition constant Ki in data set [1] of 177 ± 5 nM.
Take `Cl.Cn1nc(-c2cnc3ccc(F)cn23)c2ccc(C(=O)N3CCCCCCC3)cc21` (hydrate or solvate) [Example 97, Azocan-1-yl-[3-(6-fluoro-imidazo[1,2-a]pyridin-3-yl)-1-methyl-1H-indazol-6-yl]-methanone, chlorhydrate salt]: the melting point lay in the range of 241 to 249 °C.
In data set [1], `CCN(C(=O)c1ccc(C(=O)c2cnc3ccc(Cl)nn23)cc1)C1CCCCC1` [Example 139, N-Cyclohexyl-N-ethyl-4-(6-chloroimidazo[1,2-b]pyridazin-3-ylcarbonyl)-benzamide] came in with a Ki of 459 ± 270 nM.
The same measure, in the same setting: the result for `CCN(C(=O)c1ccc(C(=O)c2cnc3ccc(F)cn23)cc1Cl)C1CCCCC1` [Example 24, 2-Chloro-N-cyclohexyl-N-ethyl-4-(6-fluoro-imidazo[1,2-a]pyridine-3-carbonyl)-benzamide] reads 34 ± 9 nM.
The molecule `Cl.O=C(c1ccc2c(-c3cnc4ccc(F)cn34)nn(CCN3CCOCC3)c2c1)N1CCCCCC1` gave a melting point of 230 to 245 °C.
Same read-out and setting: the result for `Cl.N#Cc1ccc2ncc(-c3noc4cc(C(=O)N5CCCCCC5)ccc34)n2c1` reads 234 to 235 °C; that for `Cl.Cn1nc(-c2cnc3ccc(F)cn23)c2ccc(C(=O)N3CCCC4CCCCC43)cc21` (centres unmarked), 248 to 249 °C.
`N#Cc1ccc2ncc(-c3noc4cc(C(=O)N5CCOCC5)ccc34)n2c1` [Example 125, 3-[6-(Morpholin-4-ylcarbonyl)-1,2-benzisoxazol-3-yl]imidazo[1,2-a]pyridine-6-carbonitrile, HCl salt] showed a Ki in data set [1] of 147 ± 54 nM.
Turning to `Cl.Cn1nc(-c2cnc3ccc(F)cn23)c2ccc(C(=O)N3CCCCC3)cc21` (hydrate or solvate), the melting point was > 250 °C.
Still for that read-out and setting: with `CN(C(=O)c1ccc(C(=O)c2cnc3ccc(F)cn23)cc1)c1ccccc1` [Example 50, 4-(6-Fluoro-imidazo[1,2-a]pyridine-3-carbonyl)-N-methyl-N-phenyl-benzamide] the figure was 131 to 135 °C.

Values taken from patent US9029393B2, “Adenosine receptor ligands and uses thereof” (Kaldi Pharma, SAS, priority 2009, dated 2015).
